Measurements: PubChem BioAssay AID248 (DTP/NCI, 2004)
Inconclusive results and toxic doses are left out. No stated cut-off is given here; in the data, active means T/C of 150% or more; inactive means T/C below 125%.

Test system: L1210 leukemia ip in BDF1 mice, survival T/C
Assay: NCI In Vivo Anticancer Drug Screen. Data for tumor model L1210 Leukemia (intraperitoneal) in B6D2F1 (BDF1) mice
Details: endpoint: mean survival time, higher = longer survival
Procedure, shortened: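 Mice bearing the transplanted tumor received compound or vehicle. Survival of the treated group was divided by that of the vehicle-treated control group to give the ratio.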

[1] = dose: 100.0 mg/kg/injection, schedule: Q04DX003 (ip), vehicle: saline
[2] = dose: 200.0 mg/kg/injection, schedule: Q04DX003 (ip), vehicle: saline
[3] = dose: 400.0 mg/kg/injection, schedule: Q04DX003 (ip), vehicle: saline
[4] = dose: 100.0 mg/kg/injection, schedule: Q04DX003 (ip), vehicle: saline with Tween-80
[5] = dose: 200.0 mg/kg/injection, schedule: Q04DX003 (ip), vehicle: saline with Tween-80
[6] = dose: 100.0 mg/kg/injection, schedule: Q01DX001 (ip), vehicle: saline
[7] = dose: 200.0 mg/kg/injection, schedule: Q01DX001 (ip), vehicle: saline
[8] = dose: 400.0 mg/kg/injection, schedule: Q01DX001 (ip), vehicle: saline
[9] = dose: 25.0 mg/kg/injection, schedule: Q04DX002 (ip), vehicle: Klucel (hydroxypropylcellulose) (HPC)

Measured: T/C

Clc1ccc2c(c1)/C(=C\c1ccnc3ccccc13)c1cc(Cl)cc(Cl)c1-2
inactive: dose: 100.0 mg/kg/injection, schedule: Q01DX001 (ip), vehicle: Klucel (hydroxypropylcellulose) (HPC) 94 % of control | dose: 100.0 mg/kg/injection, schedule: Q01DX009 (ip), vehicle: Klucel (hydroxypropylcellulose) (HPC) 93 % of control | dose: 100.0 mg/kg/injection, schedule: Q04DX003 (ip), vehicle: Klucel (hydroxypropylcellulose) (HPC) 93 % of control | dose: 200.0 mg/kg/injection, schedule: Q01DX001 (ip), vehicle: Klucel (hydroxypropylcellulose) (HPC) 92 % of control | dose: 200.0 mg/kg/injection, schedule: Q01DX009 (ip), vehicle: Klucel (hydroxypropylcellulose) (HPC) 98 % of control | dose: 200.0 mg/kg/injection, schedule: Q04DX003 (ip), vehicle: Klucel (hydroxypropylcellulose) (HPC) 88 % of control | dose: 400.0 mg/kg/injection, schedule: Q01DX001 (ip), vehicle: Klucel (hydroxypropylcellulose) (HPC) 94 % of control | dose: 400.0 mg/kg/injection, schedule: Q04DX003 (ip), vehicle: Klucel (hydroxypropylcellulose) (HPC) 88 % of control

C/C(=C\Cl)COC1CCCCO1 (stereo unspecified)
inactive: dose: 100.0 mg/kg/injection, schedule: Q01DX009 (ip), vehicle: acetone 95 % of control | dose: 100.0 mg/kg/injection, schedule: Q04DX003 (ip), vehicle: acetone 101 % of control | dose: 200.0 mg/kg/injection, schedule: Q01DX009 (ip), vehicle: acetone 95 % of control | dose: 200.0 mg/kg/injection, schedule: Q04DX003 (ip), vehicle: acetone 101 % of control | dose: 400.0 mg/kg/injection, schedule: Q04DX003 (ip), vehicle: acetone 101 % of control

O=S(Cc1ccccc1)c1ccccc1 (stereo unspecified)
inactive: dose: 75.0 mg/kg/injection, schedule: Q04DX002 (ip), vehicle: Klucel (hydroxypropylcellulose) (HPC) 115 % of control | dose: 150.0 mg/kg/injection, schedule: Q04DX002 (ip), vehicle: Klucel (hydroxypropylcellulose) (HPC) 100 % of control | dose: 300.0 mg/kg/injection, schedule: Q04DX002 (ip), vehicle: Klucel (hydroxypropylcellulose) (HPC) 93 % of control

O=C(CBr)OCCCS(=O)(=O)O
inactive: dose: 100.0 mg/kg/injection, schedule: Q01DX009 (ip), vehicle: saline 96 % of control | [1] 105 % of control | dose: 200.0 mg/kg/injection, schedule: Q01DX009 (ip), vehicle: saline 113 % of control | [2] 104 % of control | dose: 400.0 mg/kg/injection, schedule: Q01DX009 (ip), vehicle: saline 102 % of control | [3] 93 % of control

COCCOC(=O)CCCCC(=O)OCCOC
inactive: [1] 107 % of control | [2] 100 % of control | [3] 94 % of control

C/C=C/C(=O)Nc1ccc(Cl)c(Cl)c1
inactive: dose: 100.0 mg/kg/injection, schedule: Q04DX002 (ip), vehicle: Klucel (hydroxypropylcellulose) (HPC) 94 % of control | dose: 200.0 mg/kg/injection, schedule: Q04DX002 (ip), vehicle: Klucel (hydroxypropylcellulose) (HPC) 90 % of control | dose: 400.0 mg/kg/injection, schedule: Q04DX002 (ip), vehicle: Klucel (hydroxypropylcellulose) (HPC) 90 % of control

COC(=O)CNC(=O)C(C)NC(=O)OCc1ccccc1 (stereo unspecified)
inactive: [4] 102 % of control | [5] 98 % of control | dose: 400.0 mg/kg/injection, schedule: Q04DX003 (ip), vehicle: saline with Tween-80 100 % of control

CCOc1ccccc1/C=C1N=C(/C=C/c2ccccc2)OC\1=O
inactive: dose: 100.0 mg/kg/injection, schedule: Q04DX002 (ip), vehicle: saline with Tween-80 92 % of control | dose: 200.0 mg/kg/injection, schedule: Q04DX002 (ip), vehicle: saline with Tween-80 89 % of control | dose: 400.0 mg/kg/injection, schedule: Q04DX002 (ip), vehicle: saline with Tween-80 97 % of control

CCC[N+](C)(C)CCOC(=O)C1C2CC3OC(=O)C1C3C2 (stereo unspecified)
inactive: [1] 97 % of control | [2] 95 % of control

O=[N+]([O-])c1ccc(N=C(Cl)N(c2ccccc2)c2ccccc2)cc1
inactive: [6] 101 % of control | [7] 109 % of control | [8] 109 % of control

CCCC(=O)OC(OC(=O)CCC)c1cccc(OC(=O)CC)c1
inactive: dose: 222.0 mg/kg/injection, schedule: Q01DX Z (ip), vehicle: methylcellulose (MC) 96 % of control | dose: 333.0 mg/kg/injection, schedule: Q01DX Z (ip), vehicle: methylcellulose (MC) 104 % of control | dose: 500.0 mg/kg/injection, schedule: Q01DX Z (ip), vehicle: methylcellulose (MC) 105 % of control

C(=C\c1ccccc1)/C[n+]1cccc2ccccc21
inactive: dose: 75.0 mg/kg/injection, schedule: Q01DX001 (ip), vehicle: saline 89 % of control

Cc1c([N+](=O)[O-])cc(C(C)(C)C)c(OC(=O)Nc2cccc(Cl)c2)c1[N+](=O)[O-]
inactive: dose: 12.5 mg/kg/injection, schedule: Q01DX009 (ip), vehicle: Klucel (hydroxypropylcellulose) (HPC) 100 % of control | dose: 25.0 mg/kg/injection, schedule: Q01DX009 (ip), vehicle: Klucel (hydroxypropylcellulose) (HPC) 94 % of control | dose: 50.0 mg/kg/injection, schedule: Q01DX009 (ip), vehicle: Klucel (hydroxypropylcellulose) (HPC) 101 % of control

CC1=C2CC[C@H]3[C@@H]4CC[C@H](O)[C@@]4(C)CC[C@@H]3[C@@]2(C)CCC1=O
inactive: dose: 100.0 mg/kg/injection, schedule: Q01DX001 (sc), vehicle: steriod suspending solution 98 % of control | dose: 200.0 mg/kg/injection, schedule: Q01DX001 (sc), vehicle: steriod suspending solution 98 % of control | dose: 400.0 mg/kg/injection, schedule: Q01DX001 (sc), vehicle: steriod suspending solution 96 % of control | dose: 800.0 mg/kg/injection, schedule: Q01DX001 (sc), vehicle: steriod suspending solution 96 % of control

CC(C)CC(N)C(=O)CCl (stereo unspecified)
inactive: [9] 108 % of control | dose: 50.0 mg/kg/injection, schedule: Q04DX002 (ip), vehicle: Klucel (hydroxypropylcellulose) (HPC) 102 % of control

CC1CN(C(=N)C#N)C(C)CN1C(=N)C#N (stereo unspecified)
inactive: dose: 100.0 mg/kg/injection, schedule: Q01DX009 (ip), vehicle: saline with Tween-80 92 % of control | [4] 109 % of control | [5] 104 % of control

CC1(C(=O)O)CCCC1C(CCC(=O)O)C(=O)O (stereo unspecified)
inactive: [6] 97 % of control | [7] 95 % of control | [8] 92 % of control

CC1Cc2ccccc2C2=C3CC=CCC3C3C(=O)OC(=O)C3C21 (stereo unspecified)
inactive: dose: 75.0 mg/kg/injection, schedule: Q01DX001 (ip), vehicle: carboxymethylcellulose (CMC) 89 % of control | dose: 150.0 mg/kg/injection, schedule: Q01DX001 (ip), vehicle: carboxymethylcellulose (CMC) 94 % of control | dose: 300.0 mg/kg/injection, schedule: Q01DX001 (ip), vehicle: carboxymethylcellulose (CMC) 90 % of control

O=C(O)c1cc2ccccc2cc1Sc1ccccc1
inactive: [4] 103 % of control | [5] 102 % of control

C=C/C=C\N(CC)CC
inactive: dose: 6.25 mg/kg/injection, schedule: Q01DX009 (ip), vehicle: water 98 % of control | dose: 12.5 mg/kg/injection, schedule: Q01DX009 (ip), vehicle: water 97 % of control | dose: 25.0 mg/kg/injection, schedule: Q01DX009 (ip), vehicle: water 104 % of control | dose: 25.0 mg/kg/injection, schedule: Q04DX003 (ip), vehicle: water 95 % of control | dose: 50.0 mg/kg/injection, schedule: Q01DX009 (ip), vehicle: water 98 % of control | dose: 50.0 mg/kg/injection, schedule: Q04DX003 (ip), vehicle: water 88 % of control | dose: 100.0 mg/kg/injection, schedule: Q04DX003 (ip), vehicle: water 100 % of control

C[CH2][Pb]([CH2]C)([CH2]C)[O]C(=O)COc1ccccc1
inactive: dose: 0.75 mg/kg/injection, schedule: Q01DX009 (ip), vehicle: Klucel (hydroxypropylcellulose) (HPC) 98 % of control | dose: 0.75 mg/kg/injection, schedule: Q04DX003 (ip), vehicle: saline with Tween-80 96 % of control | dose: 1.5 mg/kg/injection, schedule: Q01DX009 (ip), vehicle: Klucel (hydroxypropylcellulose) (HPC) 95 % of control | dose: 1.5 mg/kg/injection, schedule: Q04DX003 (ip), vehicle: saline with Tween-80 95 % of control | dose: 3.0 mg/kg/injection, schedule: Q01DX009 (ip), vehicle: Klucel (hydroxypropylcellulose) (HPC) 106 % of control | dose: 3.0 mg/kg/injection, schedule: Q04DX003 (ip), vehicle: saline with Tween-80 101 % of control | dose: 6.0 mg/kg/injection, schedule: Q01DX009 (ip), vehicle: Klucel (hydroxypropylcellulose) (HPC) 102 % of control | dose: 6.0 mg/kg/injection, schedule: Q04DX003 (ip), vehicle: saline with Tween-80 91 % of control | dose: 12.0 mg/kg/injection, schedule: Q04DX003 (ip), vehicle: saline with Tween-80 101 % of control | dose: 12.5 mg/kg/injection, schedule: Q04DX002 (ip), vehicle: Klucel (hydroxypropylcellulose) (HPC) 103 % of control | [9] 97 % of control
